ChEMBL document CHEMBL3046257, “Response of sweet maize (Zea mays L.) hybrids to halosulfuron” (Crop Prot, 2008)

Assays:
Zea mays [1] = assay: Toxicity in Zea mays (maize) assessed as plant height relative to untreated control; assay type: organism-based; conditions: in vivo
Zea mays [2] = assay: Toxicity in Zea mays (maize) assessed as reduction in cob size relative to untreated control; assay type: organism-based; set-up: scale not given: the % may be the effect or the level left; conditions: in vivo

Compound | Activity (Zea mays [1]) | Activity (Zea mays [2])
CC(C)N1C(=O)c2ccccc2NS1(=O)=O [BENTAZON] | 100% | 
COc1cc(OC)nc(NC(=O)NS(=O)(=O)c2ncccc2C(=O)N(C)C)n1 [NICOSULFURON] | 100% | 
O=C(O)c1nc(Cl)ccc1Cl [CLOPYRALID] |  | 67%
COC(=O)c1sccc1S(=O)(=O)NC(=O)Nc1nc(C)nc(OC)n1 [THIFENSULFURON-METHYL] |  | 9%
COc1nc(C)nc(NC(=O)NS(=O)(=O)c2ccccc2CCC(F)(F)F)n1 [PROSULFURON] | 100% | 
